Test results reported in patent publication US20260151492A1 (priority 2022, published 2026).
Read-outs that look alike come from different tables or passages of the source.

Columns and labels:
DRD2L [1] = molecular target: T1, DRD2L (Homo sapiens, UniProt P14416); settings: statement on ketamine, no own data shown; cited from earlier work
Sigma 2 [2] = molecular target: T2, Sigma 2 (Homo sapiens, UniProt Q5BJF2); settings: literature (Pergolizi, 2023; Bonaventura, 2021); cited from earlier work
T2 sequence (Q5BJF2 whole entry): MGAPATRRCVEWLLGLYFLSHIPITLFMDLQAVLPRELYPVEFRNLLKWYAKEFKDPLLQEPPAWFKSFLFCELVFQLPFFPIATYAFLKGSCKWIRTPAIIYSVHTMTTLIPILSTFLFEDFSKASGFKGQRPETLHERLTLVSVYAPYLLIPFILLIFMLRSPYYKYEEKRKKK

Mecp2-null mice = settings: cited from earlier work
DRD2L [3] = molecular target: T1, DRD2L; experiment: D2L human dopamine GPCR cell based agonist cAMP assay
Opiate k = Opiate k (Homo sapiens, UniProt P41145); experiment: Opiate k binding assay
Opiate k, sequence (P41145 whole entry): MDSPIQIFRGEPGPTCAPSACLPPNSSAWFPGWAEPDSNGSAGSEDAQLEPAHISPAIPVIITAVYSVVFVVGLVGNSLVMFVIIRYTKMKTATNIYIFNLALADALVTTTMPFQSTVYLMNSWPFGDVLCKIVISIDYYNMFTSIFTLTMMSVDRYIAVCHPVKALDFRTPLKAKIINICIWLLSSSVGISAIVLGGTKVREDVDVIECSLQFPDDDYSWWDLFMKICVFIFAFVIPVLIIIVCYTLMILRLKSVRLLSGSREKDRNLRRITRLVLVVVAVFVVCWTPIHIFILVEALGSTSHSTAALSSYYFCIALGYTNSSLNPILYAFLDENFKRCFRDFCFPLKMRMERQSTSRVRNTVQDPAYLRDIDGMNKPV

NMDAR 1A/2B = NMDAR 1A/2B (Homo sapiens, UniProt Q05586+Q13224); experiment: NMDAR 1A/2B antagonist (ion channel blocker) assay; type: cell-based
NMDAR 1A/2B, sequence (Q13224 27-1484, other chains not shown): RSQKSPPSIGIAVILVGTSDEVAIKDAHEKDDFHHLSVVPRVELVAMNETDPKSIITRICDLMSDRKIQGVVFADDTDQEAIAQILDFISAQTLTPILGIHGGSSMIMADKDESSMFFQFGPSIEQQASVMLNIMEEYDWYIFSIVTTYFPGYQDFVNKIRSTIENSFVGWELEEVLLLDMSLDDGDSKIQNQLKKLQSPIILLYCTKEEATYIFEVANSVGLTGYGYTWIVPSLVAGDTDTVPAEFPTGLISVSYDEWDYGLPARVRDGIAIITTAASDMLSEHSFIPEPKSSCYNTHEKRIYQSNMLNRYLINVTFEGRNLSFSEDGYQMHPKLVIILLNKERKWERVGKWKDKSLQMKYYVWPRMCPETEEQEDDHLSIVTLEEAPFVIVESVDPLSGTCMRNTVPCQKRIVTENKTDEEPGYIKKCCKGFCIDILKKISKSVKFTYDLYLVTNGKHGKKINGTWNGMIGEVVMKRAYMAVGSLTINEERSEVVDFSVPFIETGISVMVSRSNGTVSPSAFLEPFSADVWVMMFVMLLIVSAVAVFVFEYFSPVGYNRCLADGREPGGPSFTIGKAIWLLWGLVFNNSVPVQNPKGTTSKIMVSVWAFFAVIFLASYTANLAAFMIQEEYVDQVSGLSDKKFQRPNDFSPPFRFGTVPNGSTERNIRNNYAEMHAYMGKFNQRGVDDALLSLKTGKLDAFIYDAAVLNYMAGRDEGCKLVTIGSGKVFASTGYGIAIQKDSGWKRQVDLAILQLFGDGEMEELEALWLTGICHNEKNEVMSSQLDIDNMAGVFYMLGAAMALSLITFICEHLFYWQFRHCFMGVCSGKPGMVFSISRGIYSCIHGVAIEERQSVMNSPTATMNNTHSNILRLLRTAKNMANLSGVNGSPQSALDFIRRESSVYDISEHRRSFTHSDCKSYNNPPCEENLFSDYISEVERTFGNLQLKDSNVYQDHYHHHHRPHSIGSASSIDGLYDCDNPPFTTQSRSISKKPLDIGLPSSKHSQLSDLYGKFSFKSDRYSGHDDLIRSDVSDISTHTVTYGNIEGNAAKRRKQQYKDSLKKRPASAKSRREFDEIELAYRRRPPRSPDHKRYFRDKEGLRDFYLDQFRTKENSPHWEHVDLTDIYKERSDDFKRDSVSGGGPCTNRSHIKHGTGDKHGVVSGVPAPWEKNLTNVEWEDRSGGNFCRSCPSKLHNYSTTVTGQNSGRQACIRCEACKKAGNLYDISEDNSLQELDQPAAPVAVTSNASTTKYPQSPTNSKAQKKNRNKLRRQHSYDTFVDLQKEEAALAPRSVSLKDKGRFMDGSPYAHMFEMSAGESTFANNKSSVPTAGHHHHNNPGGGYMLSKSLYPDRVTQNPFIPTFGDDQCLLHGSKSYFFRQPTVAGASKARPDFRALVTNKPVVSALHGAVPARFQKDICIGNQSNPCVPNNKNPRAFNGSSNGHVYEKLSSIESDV

Sigma 2 [4] = molecular target: T2, Sigma 2; experiment: Sigma 2 binding assay
Opiate μ = Opiate μ (Homo sapiens, UniProt P35372); experiment: Opiate μ binding assay
Opiate μ, sequence (P35372 whole entry): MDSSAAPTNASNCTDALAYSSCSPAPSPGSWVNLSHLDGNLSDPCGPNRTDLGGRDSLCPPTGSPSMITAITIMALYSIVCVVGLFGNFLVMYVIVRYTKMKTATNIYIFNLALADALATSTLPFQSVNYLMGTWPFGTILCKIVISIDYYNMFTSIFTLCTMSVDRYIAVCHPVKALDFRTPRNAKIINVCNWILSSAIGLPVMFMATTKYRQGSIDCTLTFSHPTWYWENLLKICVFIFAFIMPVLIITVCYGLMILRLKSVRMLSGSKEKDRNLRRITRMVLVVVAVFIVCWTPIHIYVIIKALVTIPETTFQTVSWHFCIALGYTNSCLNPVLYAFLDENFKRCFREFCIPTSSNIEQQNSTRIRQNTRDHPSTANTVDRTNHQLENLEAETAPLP

T1 sequence (P14416 whole entry): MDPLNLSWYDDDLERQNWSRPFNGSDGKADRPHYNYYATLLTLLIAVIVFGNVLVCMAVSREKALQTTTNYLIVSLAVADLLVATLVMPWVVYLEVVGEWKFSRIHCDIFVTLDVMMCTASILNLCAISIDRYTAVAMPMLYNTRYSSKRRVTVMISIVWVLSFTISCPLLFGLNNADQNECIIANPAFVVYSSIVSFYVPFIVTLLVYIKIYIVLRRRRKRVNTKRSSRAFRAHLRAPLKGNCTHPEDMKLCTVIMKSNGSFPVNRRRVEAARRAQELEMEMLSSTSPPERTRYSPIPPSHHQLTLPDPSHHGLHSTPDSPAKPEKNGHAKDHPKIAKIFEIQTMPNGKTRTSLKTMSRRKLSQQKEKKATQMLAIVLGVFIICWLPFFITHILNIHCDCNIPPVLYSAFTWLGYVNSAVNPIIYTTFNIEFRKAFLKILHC

CNC1(c2ccccc2Cl)CCCCC1=O (racemic) [Ketamine, (R,S)-ketamine]
Affinity for dopamine 2 receptors (in words) (DRD2L [1]): not shown any affinity
Binding to sigma2 receptors (in words) (Sigma 2 [2]): binds sigma2 receptors at mM concentrations
Improvement of survival (Mecp2-null mice; 8 mg/kg IP every day for 40 days (total 320 mg/kg), at 80 days post natal): 50%
Efficacy of treatment (in words) (Mecp2-null mice; 8 mg/kg/day ip from day 15 to day 55 (320 mg/kg total)): some efficacy
Efficacy of treatment (in words) (Mecp2-null mice; 8 mg/kg/day ip from day 30 to day 55 (200 mg/kg total)): not effective
Survival (Mecp2-null mice; after treatment with 320 mg/kg of ketamine, published data): 50%

NC1(c2ccccc2Cl)CCCCC1=O (racemic) [NorKetamine, (R,S)-Norketamine]
Binding to Dopamine 2 receptors (in words) (DRD2L [3]): does not appear to bind
IC50 (Opiate k): 667 µM
Ki (Opiate k): 381 µM
IC50 (NMDAR 1A/2B; IC50, NMDAR 1A/2B antagonist assay, FIG. 15A): 6.96 µM
IC50 (NMDAR 1A/2B; NMDAR 1A/2B Ion channel blocker, Table 5): 6.9 µM
IC50 (Sigma 2 [4]): 246 µM
Ki, Opioid μ receptors (Opiate μ): does not bind
